Data: publication PMC8188608 (Chemical Science, 2021)

Target: ΔmtDXPS (Mycobacterium tuberculosis, UniProt P9WNS3, D231G/I229G/K230G/L233G/S232G/S234G)
Format: binding

O=C(CCCOc1ccc(Cl)cc1Cl)NCCc1ccc(O)cc1F [Compound 39]
fold decrease in binding affinity for ΔmtDXPS: ~1.5 fold
